ChEMBL document CHEMBL1201862, “PubChem BioAssay data set” (2004)
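A five-concentration, 48-hour dose response in 96-well plates underlies each endpoint, interpolated linearly between surrounding concentrations. GI50 is the concentration that inhibits growth by half.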 The source made the active and inactive calls. Rule as the data show it: active = GI50 up to about 1.1 µM and inactive = higher.

Experiments:
Test in all cases: NCI tumour cell line growth inhibition, 48 h
LOX IMVI = test system: LOX IMVI
MOLT-4 = test system: MOLT-4
EKVX = test system: EKVX
MDA-N = test system: MDA-N
SK-OV-3 = test system: SK-OV-3
786-0 = test system: 786-0
HL-60 = test system: HL-60
ACHN = test system: ACHN
HOP-62 = test system: HOP-62
KM12 = test system: KM12
SK-MEL-5 = test system: SK-MEL-5
CAKI-1 = test system: CAKI-1
UO-31 = test system: UO-31
IGROV-1 = test system: IGROV-1
SF-539 = test system: SF-539
Malme-3M = test system: Malme-3M
DU-145 = test system: DU-145
OVCAR-3 = test system: OVCAR-3
PC-3 = test system: PC-3
UACC-257 = test system: UACC-257

Measured: GI50

CC(=O)NC(=O)/N=C1\NCCC(=O)N1CCc1c[nH]c2ccccc12
inactive: LOX IMVI > 100 µM | MOLT-4 > 100 µM | EKVX > 100 µM | MDA-N > 100 µM | SK-OV-3 > 100 µM | 786-0 > 100 µM | HL-60 > 100 µM | ACHN > 100 µM | HOP-62 > 100 µM | KM12 > 100 µM | SK-MEL-5 > 100 µM | CAKI-1 > 100 µM | UO-31 > 100 µM | IGROV-1 > 100 µM | SF-539 > 100 µM | Malme-3M > 100 µM | DU-145 > 100 µM | OVCAR-3 > 100 µM | PC-3 > 100 µM | UACC-257 > 100 µM

Cc1c(CCOC=O)c(=O)[nH]c2nncn12
inactive: LOX IMVI > 100 µM | MOLT-4 > 100 µM | EKVX > 100 µM | MDA-N > 100 µM | SK-OV-3 > 100 µM | 786-0 > 100 µM | HL-60 > 100 µM | ACHN > 100 µM | HOP-62 > 100 µM | KM12 > 100 µM | SK-MEL-5 > 100 µM | CAKI-1 > 10 µM | UO-31 > 100 µM | IGROV-1 > 100 µM | SF-539 > 100 µM | Malme-3M > 100 µM | DU-145 > 100 µM | OVCAR-3 > 100 µM | PC-3 > 100 µM | UACC-257 > 100 µM

CC(=O)N(CN1C(=O)CCC1C(=O)O)c1ccc(C)cc1 (stereo not given)
inactive: LOX IMVI > 100 µM | MOLT-4 > 100 µM | EKVX > 100 µM | MDA-N > 100 µM | SK-OV-3 > 100 µM | 786-0 > 100 µM | HL-60 > 100 µM | ACHN > 100 µM | HOP-62 > 100 µM | KM12 > 100 µM | SK-MEL-5 > 100 µM | CAKI-1 > 100 µM | UO-31 > 100 µM | IGROV-1 > 100 µM | SF-539 > 100 µM | Malme-3M > 100 µM | DU-145 > 100 µM | OVCAR-3 > 100 µM | PC-3 > 100 µM | UACC-257 > 100 µM

Cc1cc(/N=N/c2c(O)ccc3ccccc23)ccc1/N=N/c1cccc([N+](C)(C)C)c1
inactive: LOX IMVI 4.56 µM | MOLT-4 10.8 µM | EKVX 17.6 µM | MDA-N 12.9 µM | SK-OV-3 21.3 µM | 786-0 21 µM | HL-60 2.38 µM | ACHN 23.8 µM | HOP-62 11.4 µM | KM12 3.37 µM | SK-MEL-5 2.86 µM | CAKI-1 22.7 µM | UO-31 15.7 µM | IGROV-1 2.87 µM | SF-539 5.71 µM | Malme-3M 9.64 µM | DU-145 19.6 µM | OVCAR-3 5.21 µM | PC-3 6.81 µM | UACC-257 12.2 µM

CC(C)(C)C(=O)CC1=Nc2ccccc2SC1(O)CC(=O)C(C)(C)C (stereo not given)
inactive: LOX IMVI 17.1 µM | MOLT-4 3.48 µM | EKVX 16.2 µM | MDA-N 32.7 µM | SK-OV-3 13.5 µM | 786-0 23.4 µM | HL-60 30.9 µM | ACHN 23.2 µM | HOP-62 26.3 µM | KM12 20.1 µM | SK-MEL-5 18.9 µM | CAKI-1 14.7 µM | UO-31 12.3 µM | IGROV-1 16 µM | SF-539 22.9 µM | Malme-3M 33.3 µM | DU-145 25.1 µM | OVCAR-3 17 µM | PC-3 22.5 µM | UACC-257 37.1 µM
